{"source": "ChEMBL document CHEMBL1122358", "about": "“Synthesis and central dopaminergic activities of (+/-)-hexahydro-7H-indolo[3,4-gh][1,4]benzoxazine derivatives [(+/-)-9-oxaergolines]” (J Med Chem, 1983)", "key": {"Rattus norvegicus [1]": {"organism": "Rattus norvegicus", "experiment": "Inhibitory activity against prolactin release in rat anterior pituitary cells", "format": "functional, cell-based", "conditions": "Pituitary gland cell"}, "Rattus norvegicus [2]": {"system": "Rattus norvegicus", "experiment": "Inhibitory activity against plasma prolactin level in male Sprague-Dawley rats after peroral administration (5mg/Kg), activity expressed as mean duration for submaximal inhibition", "format": "functional"}, "Rattus norvegicus [3]": {"organism": "Rattus norvegicus", "experiment": "Minimum effective dose required to decrease striatal DA turnover in rats", "format": "functional", "conditions": "read-out: MED"}, "Dopamine receptor [4]": {"target": "Dopamine receptor", "experiment": "In vitro binding affinity towards dopamine receptor was determined in rat striatal membrane using [3H]spiroperidol as the radioligand", "format": "cell membranes, Striatum"}, "Canis familiaris": {"system": "Canis familiaris", "experiment": "Minimum effective dose (sc) to induce emesis in male or female Beagle dogs", "format": "functional", "conditions": "Canis lupus familiaris, read-out: MED"}, "Rattus norvegicus [5]": {"organism": "Rattus norvegicus", "experiment": "Minimum effective dose required to induce rotations in rats with unilateral lesion in the nigrostriatal pathway", "format": "functional", "conditions": "read-out: MED"}, "Rattus norvegicus [6]": {"organism": "Rattus norvegicus", "experiment": "Minimum effective dose required to produce stereotypies in rats", "format": "functional", "conditions": "read-out: MED"}, "[7]": {"experiment": "Lethal dose in male mice (administered ip), activity expressed as LD50 values.", "format": "toxicity, organism-based", "conditions": "mouse, in vivo"}, "Dopamine receptor [8]": {"target": "Dopamine receptor (Bos taurus, UniProt Q95136+P20288)", "experiment": "In vitro binding affinity towards dopamine receptor was determined in bovine anterior pituitary membrane using [3H]dihydroergocriptine as the radioligand", "format": "cell membranes"}, "Rattus norvegicus [9]": {"system": "Rattus norvegicus", "experiment": "Inhibitory activity against plasma prolactin level in male Sprague-Dawley rats after peroral administration (5mg/Kg), activity expressed as mean duration for submaximal inhibition; Duration 3-6h", "format": "functional"}, "Rattus norvegicus [10]": {"system": "Rattus norvegicus", "experiment": "Inhibitory activity against plasma prolactin level in male Sprague-Dawley rats after peroral administration (5mg/Kg), activity expressed as mean duration for submaximal inhibition; Duration 4-8h", "format": "functional"}, "Rattus norvegicus [11]": {"system": "Rattus norvegicus", "experiment": "Inhibitory activity against plasma prolactin level in male Sprague-Dawley rats after peroral administration (5mg/Kg), activity expressed as mean duration for submaximal inhibition; Duration 3-4h", "format": "functional"}}}
{"smiles": "c1cc2c3c(c[nH]c3c1)C[C@H]1NCCO[C@H]21", "values": [{"measurement": "IC50", "setting": "Rattus norvegicus [1]", "value": 300, "unit": "nM"}, {"measurement": "Duration", "setting": "Rattus norvegicus [2]", "value": 3, "unit": "h"}, {"measurement": "minimal effective dose", "setting": "Rattus norvegicus [3]", "value": 1, "unit": "mg/kg"}, {"measurement": "IC50", "setting": "Dopamine receptor [4]", "value": 5000, "unit": "nM"}, {"measurement": "minimal effective dose", "setting": "Canis familiaris", "value": "> 0.5", "unit": "mg/kg"}, {"measurement": "minimal effective dose", "setting": "Rattus norvegicus [5]", "value": 0.5, "unit": "mg/kg"}, {"measurement": "minimal effective dose", "setting": "Rattus norvegicus [6]", "value": 5, "unit": "mg/kg"}, {"measurement": "LD50", "setting": "[7]", "value": 150, "unit": "mg/kg"}, {"measurement": "IC50", "setting": "Dopamine receptor [8]", "value": 7000, "unit": "nM"}]}
{"smiles": "CN1CCO[C@@H]2c3cccc4[nH]c(Br)c(c34)C[C@H]21", "values": [{"measurement": "IC50", "setting": "Rattus norvegicus [1]", "value": 100, "unit": "nM"}, {"measurement": "minimal effective dose", "setting": "Rattus norvegicus [3]", "value": 1, "unit": "mg/kg"}, {"measurement": "IC50", "setting": "Dopamine receptor [4]", "value": 1000, "unit": "nM"}, {"measurement": "minimal effective dose", "setting": "Canis familiaris", "value": 0.5, "unit": "mg/kg"}, {"measurement": "minimal effective dose", "setting": "Rattus norvegicus [5]", "value": 1, "unit": "mg/kg"}, {"measurement": "minimal effective dose", "setting": "Rattus norvegicus [6]", "value": 20, "unit": "mg/kg"}, {"measurement": "LD50", "setting": "[7]", "value": 35, "unit": "mg/kg"}, {"measurement": "IC50", "setting": "Dopamine receptor [8]", "value": 3000, "unit": "nM"}, {"measurement": "Duration", "setting": "Rattus norvegicus [9]", "value": 3, "unit": "h"}]}
{"smiles": "CCCN1CCO[C@@H]2c3cccc4c3[C@@H](CN4)C[C@H]21", "values": [{"measurement": "IC50", "setting": "Rattus norvegicus [1]", "value": 0.1, "unit": "nM"}, {"measurement": "Duration", "setting": "Rattus norvegicus [2]", "value": ">12", "unit": "h"}, {"measurement": "minimal effective dose", "setting": "Rattus norvegicus [3]", "value": 0.1, "unit": "mg/kg"}, {"measurement": "IC50", "setting": "Dopamine receptor [4]", "value": 600, "unit": "nM"}, {"measurement": "minimal effective dose", "setting": "Canis familiaris", "value": 0.1, "unit": "mg/kg"}, {"measurement": "minimal effective dose", "setting": "Rattus norvegicus [5]", "value": 0.1, "unit": "mg/kg"}, {"measurement": "minimal effective dose", "setting": "Rattus norvegicus [6]", "value": 0.1, "unit": "mg/kg"}, {"measurement": "LD50", "setting": "[7]", "value": 150, "unit": "mg/kg"}, {"measurement": "IC50", "setting": "Dopamine receptor [8]", "value": 300, "unit": "nM"}]}
{"smiles": "CN1CCO[C@@H]2c3cccc4[nH]cc(c34)C[C@H]21", "values": [{"measurement": "IC50", "setting": "Rattus norvegicus [1]", "value": 17, "unit": "nM"}, {"measurement": "minimal effective dose", "setting": "Rattus norvegicus [3]", "value": 0.1, "unit": "mg/kg"}, {"measurement": "IC50", "setting": "Dopamine receptor [4]", "value": 800, "unit": "nM"}, {"measurement": "minimal effective dose", "setting": "Canis familiaris", "value": 0.1, "unit": "mg/kg"}, {"measurement": "minimal effective dose", "setting": "Rattus norvegicus [5]", "value": 0.2, "unit": "mg/kg"}, {"measurement": "Duration", "setting": "Rattus norvegicus [10]", "value": 4, "unit": "h"}, {"measurement": "minimal effective dose", "setting": "Rattus norvegicus [6]", "value": 0.5, "unit": "mg/kg"}, {"measurement": "IC50", "setting": "Dopamine receptor [8]", "value": 2500, "unit": "nM"}]}
{"smiles": "CCCN1CCO[C@@H]2c3cccc4[nH]cc(c34)C[C@H]21", "values": [{"measurement": "IC50", "setting": "Rattus norvegicus [1]", "value": 0.06, "unit": "nM"}, {"measurement": "Duration", "setting": "Rattus norvegicus [2]", "value": ">22", "unit": "h"}, {"measurement": "minimal effective dose", "setting": "Rattus norvegicus [3]", "value": 0.05, "unit": "mg/kg"}, {"measurement": "IC50", "setting": "Dopamine receptor [4]", "value": 70, "unit": "nM"}, {"measurement": "minimal effective dose", "setting": "Canis familiaris", "value": 0.01, "unit": "mg/kg"}, {"measurement": "minimal effective dose", "setting": "Rattus norvegicus [5]", "value": 0.01, "unit": "mg/kg"}, {"measurement": "minimal effective dose", "setting": "Rattus norvegicus [6]", "value": 0.1, "unit": "mg/kg"}, {"measurement": "LD50", "setting": "[7]", "value": 150, "unit": "mg/kg"}, {"measurement": "IC50", "setting": "Dopamine receptor [8]", "value": 40, "unit": "nM"}]}
{"smiles": "CCCN1CCO[C@@H]2c3cccc4[nH]c(Br)c(c34)C[C@H]21", "values": [{"measurement": "IC50", "setting": "Rattus norvegicus [1]", "value": 0.2, "unit": "nM"}, {"measurement": "Duration", "setting": "Rattus norvegicus [2]", "value": ">12", "unit": "h"}, {"measurement": "minimal effective dose", "setting": "Rattus norvegicus [3]", "value": 0.5, "unit": "mg/kg"}, {"measurement": "IC50", "setting": "Dopamine receptor [4]", "value": 250, "unit": "nM"}, {"measurement": "minimal effective dose", "setting": "Canis familiaris", "value": "> 0.5", "unit": "mg/kg"}, {"measurement": "minimal effective dose", "setting": "Rattus norvegicus [5]", "value": 0.2, "unit": "mg/kg"}, {"measurement": "minimal effective dose", "setting": "Rattus norvegicus [6]", "value": 0.2, "unit": "mg/kg"}, {"measurement": "LD50", "setting": "[7]", "value": "> 200", "unit": "mg/kg"}, {"measurement": "IC50", "setting": "Dopamine receptor [8]", "value": 500, "unit": "nM"}]}
{"smiles": "CN1CCO[C@@H]2c3cccc4c3c(cn4C)C[C@H]21", "values": [{"measurement": "IC50", "setting": "Rattus norvegicus [1]", "value": "> 10000", "unit": "nM"}, {"measurement": "minimal effective dose", "setting": "Rattus norvegicus [3]", "value": 10, "unit": "mg/kg"}, {"measurement": "IC50", "setting": "Dopamine receptor [4]", "value": 4500, "unit": "nM"}, {"measurement": "minimal effective dose", "setting": "Canis familiaris", "value": 1, "unit": "mg/kg"}, {"measurement": "Duration", "setting": "Rattus norvegicus [11]", "value": 3, "unit": "h"}, {"measurement": "minimal effective dose", "setting": "Rattus norvegicus [5]", "value": 2, "unit": "mg/kg"}, {"measurement": "minimal effective dose", "setting": "Rattus norvegicus [6]", "value": 20, "unit": "mg/kg"}, {"measurement": "LD50", "setting": "[7]", "value": "> 200", "unit": "mg/kg"}, {"measurement": "IC50", "setting": "Dopamine receptor [8]", "value": 4800, "unit": "nM"}]}
{"smiles": "CCCN1C[C@H](CSC)C[C@@H]2c3cccc4[nH]cc(c34)C[C@H]21.CS(=O)(=O)O", "note": "[PERGOLIDE MESYLATE]", "values": [{"measurement": "IC50", "setting": "Rattus norvegicus [1]", "value": 0.07, "unit": "nM"}, {"measurement": "Duration", "setting": "Rattus norvegicus [2]", "value": ">22", "unit": "h"}, {"measurement": "minimal effective dose", "setting": "Rattus norvegicus [3]", "value": 0.05, "unit": "mg/kg"}, {"measurement": "minimal effective dose", "setting": "Canis familiaris", "value": 0.05, "unit": "mg/kg"}, {"measurement": "minimal effective dose", "setting": "Rattus norvegicus [5]", "value": 0.02, "unit": "mg/kg"}, {"measurement": "minimal effective dose", "setting": "Rattus norvegicus [6]", "value": 0.1, "unit": "mg/kg"}, {"measurement": "LD50", "setting": "[7]", "value": 100, "unit": "mg/kg"}]}
